US10695337B2, “Piperidin-4-yl azetidine derivatives as JAK1 inhibitors” (Incyte Corporation, priority 2010, dated 2020)

Target: human JAK1 (a.a. 837-1142)
Assay: In vitro JAK kinase assay (HTRF, phosphorylation of a biotinylated peptide), JAK1
Format: biochemical
Conditions: measured at 1 mM ATP; JAK2 IC50 / JAK1 IC50
In short: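 N-terminally His-tagged catalytic domains, baculovirus-expressed in insect cells and purified, were used as enzyme. Reactions ran 1 hr at room temperature and were stopped with a mix of 45 mM EDTA, 300 nM SA-APC and 6 nM Eu-Py20. The HTRF signal was read after 40 min of antibody binding.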

Structure (SMILES) | IC50 Ratio JAK2/JAK1
N#CCC1(n2cc(-c3ncnc4[nH]ccc34)cn2)CN(C2CCN(C(=O)c3cccc4ccccc34)CC2)C1 [Example 87, {1-[1-(1-naphthoyl)piperidin-4-yl]-3-[4-(7H-pyrrolo[2,3-d]pyrimidin-4-yl)-1H-pyrazol-1-yl]azetidin-3-yl}acetonitrile] | 0.3
N#CCC1(n2cc(-c3ncnc4[nH]ccc34)cn2)CN(C2CCN(C(=O)c3cc4c(C(F)(F)F)cccc4s3)CC2)C1 [Example 93, [3-[4-(7H-pyrrolo[2,3-d]pyrimidin-4-yl)-1H-pyrazol-1-yl]-1-(1-{[4-(trifluoromethyl)-1-benzothien-2-yl]carbonyl}piperidin-4-yl)azetidin-3-yl]acetonitrile] | 1.5
N#CCC1(n2cc(-c3ncnc4[nH]ccc34)cn2)CN(C2CCN(C(=O)c3cc4ccc(C(F)(F)F)cc4s3)CC2)C1 [Example 94, [3-[4-(7H-pyrrolo[2,3-d]pyrimidin-4-yl)-1H-pyrazol-1-yl]-1-(1-{[6-(trifluoromethyl)-1-benzothien-2-yl]carbonyl}piperidin-4-yl)azetidin-3-yl]acetonitrile] | 1.0
N#CCC1(n2cc(-c3ncnc4[nH]ccc34)cn2)CN(C2CCN(C(=O)c3cc4cccc(C(F)(F)F)c4s3)CC2)C1 [Example 95, [3-[4-(7H-pyrrolo[2,3-d]pyrimidin-4-yl)-1H-pyrazol-1-yl]-1-(1-{[7-(trifluoromethyl)-1-benzothien-2-yl]carbonyl}piperidin-4-yl)azetidin-3-yl]acetonitrile] | 2.7

More lines, now with the values ahead:

IC50 Ratio JAK2/JAK1 | Structure (SMILES)
6.5 | N#CCC1(n2cc(-c3ncnc4[nH]ccc34)cn2)CN(C2CCN(C(=O)c3ccc(O)c(Cl)c3)CC2)C1 [Example 84, {1-[1-(3-chloro-4-hydroxybenzoyl)piperidin-4-yl]-3-[4-(7H-pyrrolo[2,3-d]pyrimidin-4-yl)-1H-pyrazol-1-yl]azetidin-3-yl}acetonitrile]
0.9 | N#CCC1(n2cc(-c3ncnc4[nH]ccc34)cn2)CN(C2CCN(C(=O)c3cnc4ccccc4c3)CC2)C1 [Example 88, {3-[4-(7H-pyrrolo[2,3-d]pyrimidin-4-yl)-1H-pyrazol-1-yl]-1-[1-(quinolin-3-ylcarbonyl)piperidin-4-yl]azetidin-3-yl}acetonitrile]
2.6 | N#CCC1(n2cc(-c3ncnc4[nH]ccc34)cn2)CN(C2CCN(C(=O)c3ccc4ncccc4c3)CC2)C1 [Example 89, {3-[4-(7H-pyrrolo[2,3-d]pyrimidin-4-yl)-1H-pyrazol-1-yl]-1-[1-(quinolin-6-ylcarbonyl)piperidin-4-yl]azetidin-3-yl}acetonitrile]
1.5 | N#CCC1(n2cc(-c3ncnc4[nH]ccc34)cn2)CN(C2CCN(C(=O)c3cc4ccccc4s3)CC2)C1 [Example 90, {1-[1-(1-benzothien-2-ylcarbonyl)piperidin-4-yl]-3-[4-(7H-pyrrolo[2,3-d]pyrimidin-4-yl)-1H-pyrazol-1-yl]azetidin-3-yl}acetonitrile]
1.7 | N#CCC1(n2cc(-c3ncnc4[nH]ccc34)cn2)CN(C2CCN(C(=O)c3sc4cc(F)ccc4c3Cl)CC2)C1 [Example 91, {1-{1-[(3-chloro-6-fluoro-1-benzothien-2-yl)carbonyl]piperidin-4-yl}-3-[4-(7H-pyrrolo[2,3-d]pyrimidin-4-yl)-1H-pyrazol-1-yl]azetidin-3-yl}acetonitrile]
2.8 | N#CCC1(n2cc(-c3ncnc4[nH]ccc34)cn2)CN(C2CCN(C(=O)c3sc4cccc(F)c4c3Cl)CC2)C1 [Example 92, {1-{1-[(3-chloro-4-fluoro-1-benzothien-2-yl)carbonyl]piperidin-4-yl}-3-[4-(7H-pyrrolo[2,3-d]pyrimidin-4-yl)-1H-pyrazol-1-yl]azetidin-3-yl}acetonitrile]
0.5 | N#CCC1(n2cc(-c3ncnc4[nH]ccc34)cn2)CN(C2CCN(C(=O)c3csc4ccccc34)CC2)C1 [Example 96, {1-[1-(1-benzothien-3-ylcarbonyl)piperidin-4-yl]-3-[4-(7H-pyrrolo[2,3-d]pyrimidin-4-yl)-1H-pyrazol-1-yl]azetidin-3-yl} acetonitrile]
